Assay results reported in US20250352611A1, “METHODS FOR TREATING CATARACTS USING POLYPEPTIDES” (REJUKON BIOPHARM INC., priority 2022, published 2025).

What was measured:
[1] = system: crystallin proteins of the lens from cataract patients; assay: Soluble crystallin in cataract lens grinding fluid by western blot (anti-βB1 crystallin); set-up: species or system human; details: 20 ul 2.5 mM RJK001 in 2 ul grinding fluid, RT 10 min
Method: Quantitative analysis was performed using densitometry of crystallin proteins by western blot analysis of the supernatant or insoluble fraction of cell lysates.
Quantitative analysis was performed using densitometry of crystallin proteins by western blot analysis of the supernatant or insoluble fraction of lens lysates. Collect one intact eye lenses from cataract patients. Put it in 2 ml Eppendorf tube containing 700 ul protein solubilization buffer, Grind the complete lens at 4° C., 30s once for 3 times with Electric grinder to obtain 1 ml grinding fluid, add 20 ul 2.5 mM RJK001 in 2 ul grinding fluid as the experimental group, add 20 ul protein dissolving solution in 2 ul grinding fluid as a control, place it at RT for 10 min, centrifuge at 13000 rpm and take the supernatant for western blotting, After blocking with 5% milk, membrane were incubated with anti-βB1 crystallin (Santacruz, sc-48335, 1:3000) overnight at 4° C., Membrane were incubated with secondary antibodies for 1 h at room temperature, then the blots were detected by the enhanced chemiluminescence.
C-terminal fusion cell-penetrating peptide RJK001 and N-terminal fusion cell-penetrating peptide RJK012 were purified in vitro and added into SH-SY5Y cell. Cells were harvested at 1 h, 4 h, 8 h and 24 h respectively and were washed with PBS. Total proteins were extracted from SH-SY5Y cells with lysis buffer. […]

[2] = system: γD (W42D) aggregates in the SH-SY5Y cell; assay: γD (W42D) aggregates in SH-SY5Y cells, live imaging and CellProfiler analysis; assay type: cell-based; details: 20 uM, added every 4 hours for a total of 24 hours
Method: Cells were grown in a 12-well plate (1×10^5 cells per well) for 24 hours and transfected with γD (W42D) plasmid using EZtrans transfection reagent. 24 hours after transfection, Champ peptides RJK001 (final concentration of 20 uM) and RJK0012 (final concentration of 10 uM and 20 uM) were added into SH-SY5Y cell culture medium every 4 hours for a total of 24 hours. The effect of RJK001 and RJK012 polypeptide on the γD (W42D) aggregates in the SH-SY5Y cell mode were analyzed using a custom CellProfiler software. Briefly, cell bodies were then segmented and identified by the GFP fluorescence channel images and tracing outward to the limits of the cytoplasmic (using a diameter cutoff of 100-300 pixels). The cell bodies were used as masks to eliminate imaging artifacts outside of cell boundaries, such as background fluorescence or dead cells. After masking, punctate structures were enhanced by image processing for speckle-like features that were 10 pixels in diameter for SH-SY5Y cells and these punctate structures were then annotated as features such as γD (W42D) puncta. Finally, the total image area which was enclosed in each of the identified features (number of cell and punctate) was calculated and output to spreadsheets. At least 200 cells per sample were analyzed. […]
Granules screen and assay images were segmented and image features quantified using a custom CellProfiler and ImageJ software. […] The effect of RJK001 and RJK012 polypeptide on the γD ([…]) aggregates in the SH-SY5Y cell mode were analyzed using a custom CellProfiler software. Briefly, cell bodies were then segmented and identified by the GFP fluorescence channel images and tracing outward to the limits of the cytoplasmic (using a diameter cutoff of 100-300 pixels). The cell bodies were used as masks to eliminate imaging artifacts outside of cell boundaries, such as background fluorescence or dead cells. […] Finally, the total image area which was enclosed in each of the identified features (number of cell and punctate) was calculated and output to spreadsheets. At least 200 cells per sample were analyzed.

## TEPQEESEEEVEEPEERQQTPEVVPDDSGTFYDQTVSNDLE [RJK001, polypeptide with hydrophilic and hydrophobic segment, expressed in E. coli]
[1]
  solubility of crystallin proteins of the lens (supernatant western blot): could improve the solubility of crystallin proteins
[2]
  number of γD (W42D) aggregates in the SH-SY5Y cell: reduced the number of γD (W42D) aggregates in the SH-SY5Y cell in a time-dependent manner until 12 hours
